Assay [1] concerns the target BRD4-BD1 (Homo sapiens (Human), UniProt O60885). Put plainly: BRD4 AlphaScreen assay, BRD4-BD1. The note with it: biotin-labeled tetra-acetylated histone H4 peptide, 75 min, room temperature, read-out: BRD4 BD-1 enzyme IC50. The assay is classed as binding. The procedure, abridged: (§1)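 IC50 values from percent-control versus log inhibitor fits after bead-based proximity readout (streptavidin donor, GSH acceptor, 75 min dark). Reactions: 75 min RT, pH 7.4 HEPES, biotin-H4Ac4 peptide 50 nM, with BD1 at 3.8 nM (DMSO 1.25%) and BD2 at 20 nM (DMSO 0.83%).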
For orientation: Bead proximity is the source of the signal in Alpha formats.

Assay [2] has as its target BRD4-BD2 (Homo sapiens (Human), UniProt O60885). Put plainly: BRD4 AlphaScreen assay, BRD4-BD2. The assay is classed as binding. The note with it: biotin-labeled tetra-acetylated histone H4 peptide, 75 min, room temperature, read-out: BRD4 BD-2 enzyme IC50. The procedure, abridged:
as §1

The structures appear in SMILES notation. Structures can show the parent of a compound that is named as a salt.

Usually IC50 stands for the midpoint of a concentration-inhibition curve. Take `Cc1ccc(Cn2c(C)cc3c2ccc2nnc(C)n23)cc1` [Example 19, 1,7-dimethyl-6-(4-methylbenzyl)-6H-pyrrolo[2,3-e][1,2,4]triazolo[4,3-a]pyridine]: the 50% inhibitory concentration (IC50) in assay [1] and in assay [2] was ≤ 0.1 µM in each case.

Consider `Cc1cc2c(cc(Nc3ncc[nH]3)c3nnc(C)n32)n1Cc1ccccc1` [Example 253, 6-Benzyl-N-(1H-imidazol-2-yl)-1,7-dimethyl-6H-pyrrolo[2,3-e][1,2,4]triazolo[4,3-a]pyridin-4-amine], for which the IC50 in assay [1] and in assay [2] was ≤ 0.1 µM in each case.

`Cc1cc2c(ccc3nnc(C)n32)n1Cc1cccc(CN2CCCC2)c1` [Example 45, 1,7-dimethyl-6-[3-(pyrrolidin-1-ylmethyl)benzyl]-6H-pyrrolo[2,3-e][1,2,4]triazolo[4,3-a]pyridine]: the IC50 in assay [1] and in assay [2] was ≤ 0.1 µM each time.

Turning to `Cc1nnc2ccc3c(cc(C(=O)N4CC(C#N)C4)n3Cc3ccccc3)n12` [Example 60, 1-[(6-benzyl-1-methyl-6H-pyrrolo[2,3-e][1,2,4]triazolo[4,3-a]pyridin-7-yl)carbonyl]azetidine-3-carbonitrile], the results for the IC50 in assay [1] and in assay [2] were 0.1 to 1 µM and ≤ 0.1 µM, respectively.

On to `Cc1nnc2ccc3c(ccn3S(=O)(=O)c3ccccc3)n12` [Example 3, 1-methyl-6-(phenylsulfonyl)-6H-pyrrolo[2,3-e][1,2,4]triazolo[4,3-a]pyridine], for which the IC50 in assay [1] and in assay [2] was 0.1 to 1 µM each time.

For the compound `Cc1nnc2ccc3c(cc(-c4cncs4)n3Cc3ccccc3)n12` [Example 69, 6-benzyl-1-methyl-7-(1,3-thiazol-5-yl)-6H-pyrrolo[2,3-e][1,2,4]triazolo[4,3-a]pyridine], the results for the IC50 in assay [1] and in assay [2] were 0.1 to 1 µM and ≤ 0.1 µM, respectively.

As to `Cc1cc2c(cc(NCCN(C)C)c3nnc(C)n32)n1Cc1ccccc1` [Example 246, N1-(6-Benzyl-1,7-dimethyl-6H-pyrrolo[2,3-e][1,2,4]triazolo[4,3-a]pyridin-4-yl)-N2,N2-dimethylethane-1,2-diamine], the IC50 in assay [1] and in assay [2] was ≤ 0.1 µM throughout.

With `Cc1cc2c(cc(NC(N)=O)c3nnc(C)n32)n1Cc1ccccc1` [Example 252, 1-(6-Benzyl-1,7-dimethyl-6H-pyrrolo[2,3-e][1,24]triazolo[4,3-a]pyridin-4-yl)urea], the IC50 in assay [1] and in assay [2] was ≤ 0.1 µM in each case.

Regarding `CCNC(=O)c1cc2c(ccc3nnc(C)n32)n1Cc1cccc(Cl)c1` [Example 113, 6-(3-Chlorobenzyl)-N-ethyl-1-methyl-6H-pyrrolo[2,3-e][1,2,4]triazolo[4,3-a]pyridine-7-carboxamide Trifluoroacetate Salt], the IC50 in assay [1] and in assay [2] was ≤ 0.1 µM in each case.

Turning to `COc1ccc(Cn2c(C)cc3c2ccc2nnc(C)n23)cc1` [Example 34, 6-(4-methoxybenzyl)-1,7-dimethyl-6H-pyrrolo[2,3-e][1,2,4]triazolo[4,3-a]pyridine], the IC50 in assay [1] and in assay [2] was ≤ 0.1 µM in each case.

Regarding `Cc1nnc2ccc3c(cc(-c4ncco4)n3Cc3ccccc3)n12` [Example 143, 6-benzyl-1-methyl-7-(1,3-oxazol-2-yl)-6H-pyrrolo[2,3-e][1,2,4]triazolo[4,3-a]pyridine Trifluoroacetate Salt], the IC50 in assay [1] and in assay [2] was ≤ 0.1 µM in each case.

As to `Cc1cc2c(ccc3nnc(C)n32)n1Cc1ccccc1F` [Example 14, 6-(2-fluorobenzyl)-1,7-dimethyl-6H-pyrrolo[2,3-e][1,2,4]triazolo[4,3-a]pyridine], the half-maximal inhibitory concentration (IC50) in assay [1] and in assay [2] was ≤ 0.1 µM throughout.

Take `COc1cccc(Cn2c(C)cc3c2ccc2nnc(C)n23)c1` [Example 22, 6-(3-methoxybenzyl)-1,7-dimethyl-6H-pyrrolo[2,3-e][1,2,4]triazolo[4,3-a]pyridine]: the IC50 is 0.1 to 1 µM in assay [1] and ≤ 0.1 µM in assay [2].

Take `Cc1nnc2ccc3c(cc(-c4ccn(C5CN(CCC#N)C5)n4)n3Cc3cccc(Cl)c3)n12` [Example 181, 3-(3-{3-[6-(3-Chlorobenzyl)-1-methyl-6H-pyrrolo[2,3-e][1,2,4]triazolo[4,3-a]pyridin-7-yl]-1H-pyrazol-1-yl}azetidin-1-yl)propanenitrile bis(trifluoroacetate) Salt]: the IC50 in assay [1] and in assay [2] was ≤ 0.1 µM throughout.

For the compound `Cc1nnc2ccc3c(cc(-c4ccn(CCC(=O)N5CCOCC5)n4)n3Cc3cccc(Cl)c3)n12` [Example 169, 6-(3-Chlorobenzyl)-1-methyl-7-[1-(3-morpholin-4-yl-3-oxopropyl)-1H-pyrazol-3-yl]-6H-pyrrolo[2,3-e][1,2,4]triazolo[4,3-a]pyridine Trifluoroacetate Salt], the IC50 in assay [1] and in assay [2] was ≤ 0.1 µM throughout.

As for `Cc1cc2c(ccc3nnc(C)n32)n1Cc1cccc(CO)c1` [Example 26, {3-[(1,7-dimethyl-6H-pyrrolo[2,3-e][1,2,4]triazolo[4,3-a]pyridin-6-yl)methyl]phenyl}methanol Trifluoroacetate Salt], the IC50 in assay [1] and in assay [2] was ≤ 0.1 µM throughout.

Consider `Cc1cc2c(cc(NC(N)=O)c3nnc(C)n32)n1Cc1cccc(C(F)(F)F)c1` [Example 230, 1-(1,7-Dimethyl-6-(3-(trifluoromethyl)benzyl)-6H-pyrrolo[2,3-e][1,2,4]triazolo[4,3-a]pyridin-4-yl)urea], for which the IC50 in assay [1] and in assay [2] was ≤ 0.1 µM in each case.

For the compound `Cc1cc2c(cc(NC3CCN(C)C3)c3nnc(C)n32)n1Cc1ccccc1` (racemic) [Example 145, 6-benzyl-1,7-dimethyl-N-(1-methylpyrrolidin-3-yl)-6H-pyrrolo[2,3-e][1,2,4]triazolo[4,3-a]pyridin-4-amine bis(trifluoroacetate) Salt], the IC50 in assay [1] and in assay [2] was ≤ 0.1 µM in each case.

Turning to `Cc1cc2c(cc(Nc3cccnc3)c3nnc(C)n32)n1Cc1ccccc1` [Example 256, 6-Benzyl-1,7-dimethyl-N-(pyridin-3-yl)-6H-pyrrolo[2,3-e][1,2,4]triazolo[4,3-a]pyridin-4-amine], the IC50 in assay [1] and in assay [2] was ≤ 0.1 µM throughout.

Turning to `CNc1cc2c(cc(C)n2Cc2ccccc2)n2c(C)nnc12` [Example 261, 6-Benzyl-N,1,7-trimethyl-6H-pyrrolo[2,3-e][1,2,4]triazolo[4,3-a]pyridin-4-amine], the IC50 in assay [1] and in assay [2] was ≤ 0.1 µM in each case.

Consider `Cc1cc2c(ccc3nnc(C)n32)n1Cc1ccccn1` [Example 7, 1,7-dimethyl-6-(pyridin-2-ylmethyl)-6H-pyrrolo[2,3-e][1,2,4]triazolo[4,3-a]pyridine], for which the IC50 in assay [1] and in assay [2] was 0.1 to 1 µM each time.

Consider `Cc1cc2c(cc(N[C@@H]3CCOC3)c3nnc(C)n32)n1Cc1ccccc1` [Example 147, 6-benzyl-1,7-dimethyl-N-[(3R)-tetrahydrofuran-3-yl]-6H-pyrrolo[2,3-e][1,2,4]triazolo[4,3-a]pyridin-4-amine], for which the half-maximal inhibitory concentration (IC50) in assay [1] and in assay [2] was ≤ 0.1 µM in each case.

Regarding `Cc1nnc2ccc3c(cc(-c4ccn(CCC(N)=O)n4)n3Cc3ccccc3)n12` [Example 98, 3-[3-(6-benzyl-1-methyl-6H-pyrrolo[2,3-e][1,2,4]triazolo[4,3-a]pyridin-7-yl)-1H-pyrazol-1-yl]propanamide], the IC50 in assay [1] and in assay [2] was ≤ 0.1 µM throughout.

As to `Cc1cc2c(cc(NCC3CCC3)c3nnc(C)n32)n1Cc1ccccc1` [Example 241, 6-Benzyl-N-(cyclobutylmethyl)-1,7-dimethyl-6H-pyrrolo[2,3-e][1,2,4]triazolo[4,3-a]pyridin-4-amine], the values for the IC50 in assay [1] and in assay [2] were 0.1 to 1 µM and ≤ 0.1 µM, respectively.

Regarding `CCC(=O)Nc1cc2c(cc(C)n2Cc2ccccc2)n2c(C)nnc12` [Example 268, N-(6-Benzyl-1,7-dimethyl-6H-pyrrolo[2,3-e][1,2,4]triazolo[4,3-a]pyridin-4-yl)propionamide], the IC50 in assay [1] and in assay [2] was ≤ 0.1 µM in each case.

For `CCS(=O)(=O)N1CC(n2ccc(-c3cc4c(ccc5nnc(C)n54)n3Cc3cccc(Cl)c3)n2)C1` [Example 166, 6-(3-Chlorobenzyl)-7-{1-[1-(ethylsulfonyl)azetidin-3-yl]-1H-pyrazol-3-yl}-1-methyl-6H-pyrrolo[2,3-e][1,2,4]triazolo[4,3-a]pyridine Trifluoroacetate Salt], the IC50 in assay [1] and in assay [2] was ≤ 0.1 µM throughout.

Take `CNC(=O)c1cc2c(ccc3nnc(C)n32)n1Cc1cc(Cl)cc(CN2CCC2)c1` [Example 131, 6-[3-(Azetidin-1-ylmethyl)-5-chlorobenzyl]-N,1-dimethyl-6H-pyrrolo[2,3-e][1,2,4]triazolo[4,3-a]pyridine-7-carboxamide bis(trifluoroacetate) Salt]: the half-inhibitory concentration (IC50) in assay [1] and in assay [2] was ≤ 0.1 µM in each case.

Consider `Cc1cc2c(ccc3nnc(C)n32)n1Cc1ccc(CN2CC(O)C2)cc1` [Example 52, 1-{4-[(1,7-dimethyl-6H-pyrrolo[2,3-e][1,2,4]triazolo[4,3-a]pyridin-6-yl)methyl]benzyl}azetidin-3-ol], for which the IC50 in assay [1] and in assay [2] was 0.1 to 1 µM each time.

For `Cc1cc2c(cc(NC(=O)C3CC3)c3nnc(C)n32)n1Cc1ccccc1` [Example 269, N-(6-Benzyl-1,7-dimethyl-6H-pyrrolo[2,3-e][1,2,4]triazolo[4,3-a]pyridin-4-yl)cyclopropanecarboxamide], the IC50 in assay [1] and in assay [2] was ≤ 0.1 µM each time.

As for `Cc1cc2c(ccc3nnc(C)n32)n1CC1CCCC1` [Example 13, 6-(cyclopentylmethyl)-1,7-dimethyl-6H-pyrrolo[2,3-e][1,2,4]triazolo[4,3-a]pyridine], the results for the IC50 in assay [1] and in assay [2] were 0.1 to 1 µM and ≤ 0.1 µM, respectively.

(Values after patent US9777003B2, “Tricyclic heterocycles as bet protein inhibitors” (Incyte Corporation, priority 2013, dated 2017).)
